Results reported in patent US20050245399A1, “Pyrazole derivatives as herbicidal compositions containing them” (ISHIHARA SANGYO KAISHA, LTD., priority 2004, published 2005).

How the values were obtained:
Assay type in all cases: in vivo
[1] = test system: prickly sida (Sida spinosa L.): SEDSP; assay: Test Example 1 pre-emergence herbicidal activity, SIDSP; settings: Rate 63 g a.i./ha, visually observed 20th to 23rd day after application
How it was run: (§1)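 Upland soil pot test. Formulated compound (wettable powder or emulsifiable concentrate) in water, 500 L/ha, sprayed one day after sowing before emergence; % control rated by eye on day 20–23.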

[2] = test system: barnyardgrass (Echinochloa crus-galli L.): ECHCG; assay: Test Example 1 pre-emergence herbicidal activity, ECHCG; settings: Rate 63 g a.i./ha, visually observed 20th to 23rd day after application
How it was run: as §1

[3] = test system: barnyardgrass (Echinochiloa oryzicola: ECHOR); assay: Test Example 3 water application herbicidal activity (paddy), ECHOR; settings: 63 g a.i./ha, water application under submerged condition at 0.5 leaf stage, visually observed 14th day after application; 0 = untreated control, 100 = complete kill
How it was run: (§2)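 Submerged application in flooded paddy soil (3–4 cm water); weeds treated at 0.5-leaf stage, transplanted rice 4 d after transplanting. Scored visually as % growth control: weeds at 14 d, rice at 21 d.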

[4] = test system: crabgrass (Digitaria sanguinalis L.): DIGSA; assay: Test Example 1 pre-emergence herbicidal activity, DIGSA; settings: Rate 63 g a.i./ha, visually observed 20th to 23rd day after application
How it was run: as §1

[5] = test system: redroot pigweed (Amaranthus retroflexus L.), AMARE; assay: Test Example 2 post-emergence (foliage treatment) herbicidal activity, AMARE; settings: 63 g a.i./ha
How it was run: (§3)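 Leaf stages at treatment differed per species: 1.1-2.1 for ECHCG, 1.0-2.0 for DIGSA, 0.1-1.5 for AMARE and 1.0-2 for ORYSA. Plants grew in pots of upland soil and were sprayed with wettable powder or emulsifiable concentrate in water (500 L/ha) plus spreader at 0.1% (v/v). Visual % control followed on days 20-23.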

[6] = test system: wheat (Triticum aestivum L.): TRZAX; assay: Test Example 1 pre-emergence herbicidal activity, TRZAX; settings: Rate 63 g a.i./ha, visually observed 20th to 23rd day after application
How it was run: as §1

[7] = test system: crabgrass (Digitaria sanguinalis L.), DIGSA; assay: Test Example 2 post-emergence (foliage treatment) herbicidal activity, DIGSA; settings: 63 g a.i./ha
How it was run: as §3

[8] = test system: velvetleaf (Abutilon theophrasti), ABUTH; assay: Test Example 2 post-emergence (foliage treatment) herbicidal activity, ABUTH; settings: 63 g a.i./ha
How it was run: (§4)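 A small sprayer delivered the diluted WP or EC formulation (500 L/ha water, 0.1% v/v spreader) over emerged seedlings in upland soil pots. Damage relative to untreated plants was graded visually from 0 to 100% three weeks or so later (days 20-23).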

[9] = test system: soybean (Glycine max Merr.): GLXMA; assay: Test Example 1 pre-emergence herbicidal activity, GLXMA; settings: Rate 63 g a.i./ha, visually observed 20th to 23rd day after application
How it was run: as §1

[10] = test system: wheat (Triticum aestivum L.), TRZAX; assay: Test Example 2 post-emergence (foliage treatment) herbicidal activity, TRZAX; settings: 63 g a.i./ha
How it was run: as §4

[11] = test system: rice (Oryza sativa L.), ORYSA; assay: Test Example 2 post-emergence (foliage treatment) herbicidal activity, ORYSA; settings: 63 g a.i./ha
How it was run: as §3

[12] = test system: rice (Oryza sativa L.: ORYSA); assay: Test Example 3 water application herbicidal activity (paddy), transplanted rice ORYSA; settings: 63 g a.i./ha, water application 4th day after transplantation of 2 leaf stage rice, visually observed 21st day after application; 0 = untreated control, 100 = complete kill
How it was run: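 Rice at 2-leaf stage is transplanted into flooded puddled soil and treated by water application 4 days later, at a predetermined active-ingredient dose. Crop injury is rated visually as growth control (0–100%) 21 days after treatment.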

[13] = test system: prickly sida (Sida spinosa L.), SIDSP; assay: Test Example 2 post-emergence (foliage treatment) herbicidal activity, SIDSP; settings: 63 g a.i./ha
How it was run: as §4

[14] = test system: corn (Zea mays L.): ZEAMX; assay: Test Example 1 pre-emergence herbicidal activity, ZEAMX; settings: Rate 63 g a.i./ha, visually observed 20th to 23rd day after application
How it was run: as §1

[15] = test system: rice (Oryza sativa L.): ORYSA; assay: Test Example 1 pre-emergence herbicidal activity, ORYSA; settings: Rate 63 g a.i./ha, visually observed 20th to 23rd day after application
How it was run: as §1

[16] = test system: japanese bulrush (Scirpus juncoides: SCPJO); assay: Test Example 3 water application herbicidal activity (paddy), SCPJO; settings: 63 g a.i./ha, water application under submerged condition at 0.5 leaf stage, visually observed 14th day after application; 0 = untreated control, 100 = complete kill
How it was run: as §2

[17] = test system: barnyardgrass (Echinochloa crus-galli L.), ECHCG; assay: Test Example 2 post-emergence (foliage treatment) herbicidal activity, ECHCG; settings: 63 g a.i./ha
How it was run: as §3

[18] = test system: soybean (Glycine max Merr.), GLXMA; assay: Test Example 2 post-emergence (foliage treatment) herbicidal activity, GLXMA; settings: 63 g a.i./ha
How it was run: as §4

[19] = test system: redroot pigweed (Amaranthus retroflexus L.): AMARE; assay: Test Example 1 pre-emergence herbicidal activity, AMARE; settings: Rate 63 g a.i./ha, visually observed 20th to 23rd day after application
How it was run: as §1

[20] = test system: japanese ribbon wapato (Sagittaria pygmaea: SA GPY); assay: Test Example 3 water application herbicidal activity (paddy), SAGPY; settings: 63 g a.i./ha, water application under submerged condition, tubers planted, visually observed 14th day after application; 0 = untreated control, 100 = complete kill
How it was run: as §2

[21] = test system: corn (Zea mays L.), ZEAMX; assay: Test Example 2 post-emergence (foliage treatment) herbicidal activity, ZEAMX; settings: 63 g a.i./ha
How it was run: as §4

[22] = test system: velvetleaf (Abutilon theophrasti): ABUTH; assay: Test Example 1 pre-emergence herbicidal activity, ABUTH; settings: Rate 63 g a.i./ha, visually observed 20th to 23rd day after application
How it was run: as §1

[23] = test system: green foxtail (Setaria viridis L.): SETVI; assay: Test Example 1 pre-emergence herbicidal activity, SETVI; settings: Rate 63 g a.i./ha, visually observed 20th to 23rd day after application
How it was run: as §1

[24] = test system: green foxtail (Setaria viridis L.), SETVI; assay: Test Example 2 post-emergence (foliage treatment) herbicidal activity, SETVI; settings: 63 g a.i./ha
How it was run: as §4

| SMILES | Pre-emergence Herbicidal Activity SIDSP (growth controlling degree) [1] | Pre-emergence Herbicidal Activity ECHCG (growth controlling degree) [2] | growth controlling degrees (%) ECHOR [3] | Pre-emergence Herbicidal Activity DIGSP (growth controlling degree) [4] | growth controlling degree, AMARE [5] | Pre-emergence Herbicidal Activity TRZAX (growth controlling degree) [6] | growth controlling degree, DIGSP [7] | growth controlling degree, ABUTH [8] | Pre-emergence Herbicidal Activity GLXMA (growth controlling degree) [9] | growth controlling degree, TRZAX [10] | growth controlling degree, ORYSA [11] | growth controlling degrees (%) ORYSA [12] | growth controlling degree, SIDSP [13] | Pre-emergence Herbicidal Activity ZEAMX (growth controlling degree) [14] | Pre-emergence Herbicidal Activity ORYSA (growth controlling degree) [15] | growth controlling degrees (%) SCPJO [16] | growth controlling degree, ECHCO [17] | growth controlling degree, GLXMA [18] | Pre-emergence Herbicidal Activity AMARE (growth controlling degree) [19] | growth controlling degrees (%) SAGPY [20] | other results |
| --- | --- | --- | --- | --- | --- | --- | --- | --- | --- | --- | --- | --- | --- | --- | --- | --- | --- | --- | --- | --- | --- |
| COc1ccc(COC(=O)Nc2c(OC)c(Cl)cc(F)c2-c2nn(C)c(OC(F)F)c2Cl)cc1 [Compound 1-56] | 70% | 50% | 100% | 70% | 100% | 0% | 98% | 100% | 0% | 50% | 90% | 35% | 100% | 10% | 20% | 95% | 90% | 100% | 100% | 80% | growth controlling degree, ZEAMX [21]: 80%; Pre-emergence Herbicidal Activity ABUTH (growth controlling degree) [22]: 60%; Pre-emergence Herbicidal Activity SETVI (growth controlling degree) [23]: 80%; growth controlling degree, SETVI [24]: 100% |
| COc1c(Cl)cc(F)c(-c2nn(C)c(OC(F)F)c2Cl)c1NC(=O)c1ccccc1C [Compound 1-24] | 100% | 95% | 100% | 100% | 100% | 20% | 98% | 100% | 10% | 50% | 98% | 60% | 100% | 10% | 60% | 80% | 100% | 100% | 100% | 90% | growth controlling degree, ZEAMX [21]: 90%; Pre-emergence Herbicidal Activity ABUTH (growth controlling degree) [22]: 100%; Pre-emergence Herbicidal Activity SETVI (growth controlling degree) [23]: 100%; growth controlling degree, SETVI [24]: 100% |
| COc1c(Cl)cc(F)c(-c2nn(C)c(OC(F)F)c2Cl)c1NC(=O)C(C)Oc1ccccc1 (stereo not drawn) [Compound 1-33] | 50% | 30% | 100% | 40% | 100% | 10% | 70% | 100% | 0% | 30% | 50% | 35% | 100% | 0% | 10% | 40% | 80% | 60% | 95% | 98% | growth controlling degree, ZEAMX [21]: 60%; Pre-emergence Herbicidal Activity ABUTH (growth controlling degree) [22]: 40%; Pre-emergence Herbicidal Activity SETVI (growth controlling degree) [23]: 50%; growth controlling degree, SETVI [24]: 98% |
| COc1c(Cl)cc(F)c(-c2nn(C)c(OC(F)F)c2Cl)c1NC(=O)/C=C/c1ccccc1 [Compound 1-31] | 100% | 80% | 100% | 100% | 100% | 10% | 80% | 100% | 10% | 20% | 60% | 40% | 100% | 10% | 50% | 60% | 80% | 60% | 100% | 95% | growth controlling degree, ZEAMX [21]: 40%; Pre-emergence Herbicidal Activity ABUTH (growth controlling degree) [22]: 100%; Pre-emergence Herbicidal Activity SETVI (growth controlling degree) [23]: 100%; growth controlling degree, SETVI [24]: 95% |
